Measured values as given in article PMC9146695, “Globularia alypum L. and Related Species: LC-MS Profiles and Antidiabetic, Antioxidant, Anti-Inflammatory, Antibacterial and Anticancer Potential” (Pharmaceuticals, 2022).
In brackets after ≈: the same amount, converted by molar mass.

How the values were obtained:
Format in all cases: cell-based
[1] = tested on: Escherichia coli ATCC 10536; experiment: Serial broth microdilution with agar sub-cultivation
[2] = tested on: Pseudomonas aeruginosa ATCC 27853; experiment: as above
[3] = tested on: Staphylococcus aureus ATCC 6538; experiment: as above
[4] = tested on: Enterococcus faecalis ATCC 29212; experiment: as above; details: ATCC29212, n.d. = not detected (0.18–11.36 mg/mL)
[5] = tested on: Bacillus cereus ATCC 11778; experiment: as above
[6] = tested on: Bacillus subtilis ATCC 6633; experiment: as above
[7] = tested on: Pseudomonas aeruginosa ATCC 27853; experiment: Well diffusion method; details: aerial parts extracts c = 50 mg/mL; antibiotics c = 0.2 mg/mL; n.d. = growth inhibition not detected
Protocol: (§1) Antibacterial activity was evaluated using the following strains: Bacillus cereus American Type Culture Collection (ATCC, Manassas, VA, USA) 11778, B. subtilis ATCC 6633, Enterococcus faecalis ATCC 29212, Staphylococcus aureus ATCC 6538 and S. aureus ATCC 29213 among Gram-positive and Escherichia coli ATCC 10536, Klebsiella pneumoniae MFBF 10402 and Pseudomonas aeruginosa ATCC 27853 among Gram-negative bacterial species. Additionally, eight clinical isolates of S. aureus, including methicillin-resistant S. aureus (MRSA MFB F101, MRSA MFBF 124, MRSA MFBF 154, MRSA MFBF 164, and MRSA MFBF 177) and methicillin susceptible S. aureus (S. aureus MFBF 505, S. aureus MFBF 10661 and S. aureus MFBF 10666) were used. Bacterial strains were sourced from the Collection of Microorganisms, Department of Microbiology, Faculty of Pharmacy and Biochemistry, University of Zagreb. Inoculums were prepared from overnight cultures that were cultured on tryptic soy agar (TSA) at 37 °C, suspended in sterile physiological saline, with the optic density adjusted to 0.5 McFarland (1.5 × 10^8 colony-forming units (CFUs)/mL) using a densitometer (Densimat, BioMérieux, Marcy-l’Étoile, France). Right before cultivation in nutrient medium, 1 mL of each prepared suspension was dissolved with 9 mL physiological saline. Prior to cell treatment, sample stock solutions in distilled water (c = 50 mg/mL) were filtered through Chromafil cellulose acetate filters of pore size 0.22 μm (Macherey-Nagel, Düren, Germany).
(§2) Well diffusion method was carried out according to the European Pharmacopoeia. Inoculums (100 μL) were transferred to individual petri dishes with 4 mm thick Müller–Hinton agar and equally distributed across agar surface with a glass L-stick. Wells were prepared using sterile stainless-steel cylinders (d = 6 mm) and filled with 50 μL of methanolic aerial parts extract solution (c = 50 mg/mL) in distilled water. Plates were incubated at 37 °C for 18 h in the dark. Diameters of the zones of inhibition of bacterial growth (mm) were read from the diameters of transparent zones around the wells. Gentamicin and norfloxacin (c = 0.2 mg/mL) were used as positive controls.

[8] = tested on: Escherichia coli ATCC 10536; experiment: Well diffusion method; details: aerial parts extracts c = 50 mg/mL; antibiotics c = 0.2 mg/mL; n.d. = growth inhibition not detected
Protocol: as §1, §2

[9] = tested on: Enterococcus faecalis ATCC 29212; experiment: Well diffusion method; details: aerial parts extracts c = 50 mg/mL; antibiotics c = 0.2 mg/mL; n.d. = growth inhibition not detected
Protocol: as §1, §2

[10] = tested on: Staphylococcus aureus ATCC 6538; experiment: Well diffusion method; details: aerial parts extracts c = 50 mg/mL; antibiotics c = 0.2 mg/mL
Protocol: as §1, §2

[11] = tested on: Bacillus cereus ATCC 11778; experiment: Well diffusion method; details: aerial parts extracts c = 50 mg/mL; antibiotics c = 0.2 mg/mL; n.d. = growth inhibition not detected
Protocol: as §1, §2

[12] = tested on: Klebsiella pneumoniae MFBF 10402; experiment: Well diffusion method; details: aerial parts extracts c = 50 mg/mL; antibiotics c = 0.2 mg/mL; n.d. = growth inhibition not detected
Protocol: as §1, §2

[13] = tested on: Bacillus subtilis ATCC 6633; experiment: Well diffusion method; details: aerial parts extracts c = 50 mg/mL; antibiotics c = 0.2 mg/mL; n.d. = growth inhibition not detected
Protocol: as §1, §2

[14] = tested on: Staphylococcus aureus ATCC 29213; experiment: Serial broth microdilution with agar sub-cultivation
[15] = tested on: Klebsiella pneumoniae MFBF 10402; experiment: as above

CNC(C)C1CCC(N)C(OC2C(N)CC(N)C(OC3OCC(C)(O)C(NC)C3O)C2O)O1 (stereo not shown) [Gentamicin, gentamicin]
MIC ([1]; ATCC10536, aerial parts extracts, TTC detection, n.d. = growth inhibition not detected (0.18–11.36 mg/mL)): 0.1 µg/mL (≈ 0.209 µM) | MBC ([1]; ATCC10536, agar sub-cultivation, n.d. = not detected (0.18–11.36 mg/mL)): 1.5 µg/mL (≈ 3.14 µM) | MIC ([2]; ATCC27853, aerial parts extracts, TTC detection, n.d. = growth inhibition not detected (0.36–22.73 mg/mL)): 1.1 µg/mL (≈ 2.3 µM) | MBC ([2]; ATCC27853, agar sub-cultivation, n.d. = not detected (0.36–22.73 mg/mL)): 3 µg/mL (≈ 6.28 µM) | MIC ([3]; ATCC6538, aerial parts extracts, TTC detection): 0.6 µg/mL (≈ 1.26 µM) | MBC ([3]; ATCC6538, agar sub-cultivation, n.d. = not detected): 0.8 µg/mL (≈ 1.68 µM) | MBC [4]: 4.6 µg/mL (≈ 9.63 µM) | MIC ([5]; ATCC11778, aerial parts extracts, TTC detection, n.d. = growth inhibition not detected (0.18–11.36 mg/mL)): 1.5 µg/mL (≈ 3.14 µM) | MBC ([5]; ATCC11778, agar sub-cultivation, n.d. = not detected (0.18–11.36 mg/mL)): 1.5 µg/mL (≈ 3.14 µM) | MIC ([6]; ATCC6633, aerial parts extracts, TTC detection, n.d. = growth inhibition not detected (0.18–11.36 mg/mL)): < 0.1 µg/mL | MBC ([6]; ATCC6633, agar sub-cultivation, n.d. = not detected (0.18–11.36 mg/mL)): 0.2 µg/mL (≈ 0.419 µM) | growth inhibition zone [7]: 24.3 ± 0.6 mm | growth inhibition zone [8]: 23.3 ± 0.6 mm | growth inhibition zone [9]: 15.0 ± 0.0 mm | growth inhibition zone [10]: 24.0 ± 0.0 mm | growth inhibition zone [11]: 22.3 ± 0.6 mm | growth inhibition zone [12]: 21.0 ± 0.0 mm | growth inhibition zone [13]: 24.7 ± 0.6 mm | MIC ([14]; ATCC29213, aerial parts extracts, TTC detection): 0.3 µg/mL (≈ 0.628 µM) | MBC ([14]; ATCC29213, agar sub-cultivation): 0.7 µg/mL (≈ 1.47 µM) | MIC ([15]; MFBF10402, aerial parts extracts, TTC detection, n.d. = growth inhibition not detected (0.18–11.36 mg/mL)): 0.3 µg/mL (≈ 0.628 µM) | MBC ([15]; MFBF10402, agar sub-cultivation, n.d. = not detected (0.18–11.36 mg/mL)): 0.8 µg/mL (≈ 1.68 µM)
